Reference: patent publication US20140171431A1, “AZOLE HETEROCYCLIC COMPOUND, PREPARATION METHOD, PHARMACEUTICAL COMPOSITION AND USE” (priority 2011, published 2014)
Where two headings read alike, the source gives them in different places.

How the values were obtained:
[1] = biological target: T1, Lp-PLA2 in rabbit serum (Oryctolagus cuniculus, UniProt G1SE06); test: In vitro inhibitory activity towards the enzyme Lp-PLA2 in rabbit serum, [3H]PAF substrate; type: biochemical; conditions: 100 nM
T1 construct: from tissue; host or cells: rabbit serum
T1 sequence (G1SE06 22-423): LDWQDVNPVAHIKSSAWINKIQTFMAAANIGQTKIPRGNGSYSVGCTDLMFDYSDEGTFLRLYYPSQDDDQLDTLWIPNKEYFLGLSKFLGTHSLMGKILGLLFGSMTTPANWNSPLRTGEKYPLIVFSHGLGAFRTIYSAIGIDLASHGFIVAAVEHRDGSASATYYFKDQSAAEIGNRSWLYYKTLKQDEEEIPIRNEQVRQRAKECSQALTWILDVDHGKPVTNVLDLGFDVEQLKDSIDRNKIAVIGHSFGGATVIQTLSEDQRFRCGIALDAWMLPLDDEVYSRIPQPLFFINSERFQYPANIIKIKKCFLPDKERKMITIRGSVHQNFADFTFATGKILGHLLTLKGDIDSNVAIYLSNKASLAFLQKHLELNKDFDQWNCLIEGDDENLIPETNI

[2] = biological target: T2, Lp-PLA2 in human serum (Homo sapiens, UniProt Q13093); test: In vitro inhibitory activity towards the enzyme Lp-PLA2 in human serum, [3H]PAF substrate; type: biochemical; conditions: for inhibition at 0.01 µM: 10 nM; for inhibition at 0.1 µM: 100 nM
T2 construct: from tissue
T2 sequence (Q13093 22-441): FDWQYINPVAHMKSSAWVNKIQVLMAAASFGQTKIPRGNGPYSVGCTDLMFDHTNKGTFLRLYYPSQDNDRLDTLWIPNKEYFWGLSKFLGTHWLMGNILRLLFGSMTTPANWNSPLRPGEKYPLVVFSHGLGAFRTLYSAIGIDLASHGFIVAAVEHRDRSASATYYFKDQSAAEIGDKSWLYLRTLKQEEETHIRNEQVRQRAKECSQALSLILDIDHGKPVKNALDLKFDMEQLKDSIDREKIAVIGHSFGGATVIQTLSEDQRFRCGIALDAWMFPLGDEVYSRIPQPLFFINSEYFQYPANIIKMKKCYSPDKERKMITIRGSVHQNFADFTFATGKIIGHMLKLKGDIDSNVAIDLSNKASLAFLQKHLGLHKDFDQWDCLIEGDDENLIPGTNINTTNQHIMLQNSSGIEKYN
How it was run: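 Human plasma was preincubated with compound 10 min at 37 °C in 50 mM HEPES, 150 mM NaCl, pH 7.4. Reaction started with 20 nM [3H]PAF, run 10 min at 37 °C, then extracted with CHCl3/MeOH (2:1); radioactivity of the supernatant was counted.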

[3] = rabbit serum, read-out: inhibition, %
[4] = human serum, read-out: inhibition, %
[5] = read-out: inhibitory rate towards the rabbit serum derived Lp-PLA2 enzyme
[6] = read-out: inhibitory rate towards the human serum derived Lp-PLA2 enzyme

Structure (SMILES)	inhibition at 0.1 µM [1, 3] [%]	inhibition at 0.01 µM [2, 4] [%]	inhibition at 0.1 µM ([2]; human serum) [%]	inhibition at 0.1 µM [1, 5] [%]	inhibition at 0.01 µM [2, 6] [%]
CC(=O)NCc1nnc(Cn2c(SCc3ccc(F)cc3)nc(=O)c3c2CCC3)n1Cc1ccc(-c2ccc(C(F)(F)F)cc2)cc1 [Example 110, N-((5-((2-(4-fluorobenzylthio)-4-oxo-4,5,6,7-tetrahydro-1H-cyclopenta[d]pyrimidin-1-yl)methyl)-4-((4′-(trifluoromethyl)biphenyl-4-yl)methyl)-4H-1,2,4-triazol-3-yl)methyl)acetamide]	67	67	83	–	–
CCS(=O)(=O)NCc1nnc(Cn2c(SCc3ccc(F)cc3)nc(=O)c3c2CCC3)n1Cc1ccc(-c2ccc(C(F)(F)F)cc2)cc1 [Example 111, N-((5-((2-(4-fluorobenzylthio)-4-oxo-4,5,6,7-tetrahydro-1H-cyclopenta[d]pyrimidin-1-yl)methyl)-4-((4′-(trifluoromethyl)biphenyl-4-yl)methyl)-4H-1,2,4-triazol-3-yl)methyl)ethanesulfonamide]	75	68	92	–	–
O=C1NCCN1Cc1nnc(Cn2c(SCc3ccc(F)cc3)nc(=O)c3c2CCC3)n1Cc1ccc(-c2ccc(C(F)(F)F)cc2)cc1 [Example 112, 2-(4-fluorobenzylthio)-1-((5-((2-oxoimidazolidin-1-yl)methyl)-4-((4′-(trifluoromethyl)biphenyl-4-yl)methyl)-4H-1,2,4-triazol-3-yl)methyl)-6,7-dihydro-1H-cyclopenta[d]pyrimidin-4(5H)-one]	63	56	87	–	–
CNC(=S)NCc1nnc(Cn2c(SCc3ccc(F)cc3)nc(=O)c3c2CCC3)n1Cc1ccc(-c2ccc(C(F)(F)F)cc2)cc1 [Example 113, 1-((5-((2-(4-fluorobenzylthio)-4-oxo-4,5,6,7-tetrahydro-1H-cyclopenta[d]pyrimidin-1-yl)methyl)-4-((4′-(trifluoromethyl)biphenyl-4-yl)methyl)-4H-1,2,4-triazol-3-yl)methyl)-3-methylthiourea]	64	56	91	–	–
O=c1nc(SCc2ccc(F)cc2)n(Cc2nnc(CSCc3ccc(F)cc3)n2Cc2ccc(-c3ccc(C(F)(F)F)cc3)cc2)c2c1CCC2 [Example 115, 2-(4-fluorobenzylthio)-1-((5-((4-fluorobenzylthio)methyl)-4-((4′-(trifluoromethyl)biphenyl-4-yl)methyl)-4H-1,2,4-triazol-3-yl)methyl)-6,7-dihydro-1H-cyclopenta[d]pyrimidin-4(5H)-one]	78	77	–	–	–
CN(C)/N=C/c1nnc(Cn2c(SCc3ccc(F)cc3)nc(=O)c3c2CCC3)n1Cc1ccc(-c2ccc(C(F)(F)F)cc2)cc1 [Example 116, (E)-1-((5-((2,2-dimethylhydrazono)methyl)-4-((4′-(trifluoromethyl)biphenyl-4-yl)methyl)-4H-1,2,4-triazol-3-yl)methyl)-2-(4-fluorobenzylthio)-6,7-dihydro-1H-cyclopenta[d]pyrimidin-4(5H)-one]	94	88	100	> 90	> 80
O=c1nc(SCc2ccc(F)cc2)n(Cc2nnc(/C=N/N3CCCCC3)n2Cc2ccc(-c3ccc(C(F)(F)F)cc3)cc2)c2c1CCC2 [Example 117, (E)-2-(4-fluorobenzylthio)-1-((5-((piperidin-1-ylimino)methyl)-4-((4′-(trifluoromethyl)biphenyl-4-yl)methyl)-4H-1,2,4-triazol-3-yl)methyl)-6,7-dihydro-1H-cyclopenta[d]pyrimidin-4(5H)-one]	80	67	92	–	–

Continued, values first:

inhibition at 0.1 µM [1, 3] [%]	inhibition at 0.01 µM [2, 4] [%]	inhibition at 0.1 µM ([2]; human serum) [%]	inhibition at 0.1 µM [1, 5] [%]	inhibition at 0.01 µM [2, 6] [%]	Structure (SMILES)
68	58	88	–	–	CC(C)(C)N/N=C/c1nnc(Cn2c(SCc3ccc(F)cc3)nc(=O)c3c2CCC3)n1Cc1ccc(-c2ccc(C(F)(F)F)cc2)cc1 [Example 118]
93	94	98	> 90	> 80	C=C(OC(C)=O)c1nnc(Cn2c(SCc3ccc(F)cc3)nc(=O)c3c2CCC3)n1Cc1ccc(-c2ccc(C(F)(F)F)cc2)cc1 [Example 119, 1-(5-((2-(4-fluorobenzylthio)-4-oxo-4,5,6,7-tetrahydro-1H-cyclopenta[d]pyrimidin-1-yl)methyl)-4-((4′-(trifluoromethyl)biphenyl-4-yl)methyl)-4H-1,2,4-triazol-3-yl)vinyl acetate]
90	89	98	> 90	> 80	CC(O)c1nnc(Cn2c(SCc3ccc(F)cc3)nc(=O)c3c2CCC3)n1Cc1ccc(-c2ccc(C(F)(F)F)cc2)cc1 (stereo not drawn) [Example 120, 2-(4-fluorobenzylthio)-1-((5-(1-hydroxyethyl)-4-((4′-(trifluoromethyl)biphenyl-4-yl)methyl)-4H-1,2,4-triazol-3-yl)methyl)-6,7-dihydro-1H-cyclopenta[d]pyrimidin-4(5H)-one]
95	92	–	> 90	> 80	C[N+](C)(CCO)Cc1nnc(Cn2c(SCc3ccc(F)cc3)nc(=O)c3c2CCC3)n1Cc1ccc(-c2ccc(C(F)(F)F)cc2)cc1 [Example 122, N-((5-((2-(4-fluorobenzylthio)-4-oxo-4,5,6,7-tetrahydro-1H-cyclopenta[d]pyrimidin-1-yl)methyl)-4-((4′-(trifluoromethyl)biphenyl-4-yl)methyl)-4H-1,2,4-triazol-3-yl)methyl)-2-hydroxy-N,N-dimethylethanaminium chloride]
88	76	–	–	–	O=c1nc(SCc2ccc(F)cc2)n(Cc2nnc(COCCO)n2Cc2ccc(-c3ccc(C(F)(F)F)cc3)cc2)c2c1CCC2 [Example 123, 2-(4-fluorobenzylthio)-1-((5-((2-hydroxyethoxy)methyl)-4-((4′-(trifluoromethyl)biphenyl-4-yl)methyl)-4H-1,2,4-triazol-3-yl)methyl)-6,7-dihydro-1H-cyclopenta[d]pyrimidin-4(5H)-one]
92	76	–	–	–	CCN(CC)CCOCc1nnc(Cn2c(SCc3ccc(F)cc3)nc(=O)c3c2CCC3)n1Cc1ccc(-c2ccc(C(F)(F)F)cc2)cc1 [Example 125, 1-((5-((2-(diethylamino)ethoxy)methyl)-4-((4′-(trifluoromethyl)biphenyl-4-yl)methyl)-4H-1,2,4-triazol-3-yl)methyl)-2-(4-fluorobenzylthio)-6,7-dihydro-1H-cyclopenta[d]pyrimidin-4(5H)-one]
94	90	–	> 90	> 80	CC(NCCN(C)C)c1nnc(Cn2c(SCc3ccc(F)cc3)nc(=O)c3c2CCC3)n1Cc1ccc(-c2ccc(C(F)(F)F)cc2)cc1 (stereo not drawn) [Example 128, 1-((5-(1-(2-(dimethylamino)ethylamino)ethyl)-4-((4′-(trifluoromethyl)biphenyl-4-yl)methyl)-4H-1,2,4-triazol-3-yl)methyl)-2-(4-fluorobenzylthio)-6,7-dihydro-1H-cyclopenta[d]pyrimidin-4(5H)-one]
94	92	–	–	–	CCN(CC)CCNC(C)c1nnc(Cn2c(SCc3ccc(F)cc3)nc(=O)c3c2CCC3)n1Cc1ccc(-c2ccc(C(F)(F)F)cc2)cc1 (stereo not drawn) [Example 130, 1-((5-(1-(2-(diethylamino)ethylamino)ethyl)-4-((4′-(trifluoromethyl)biphenyl-4-yl)methyl)-4H-1,2,4-triazol-3-yl)methyl)-2-(4-fluorobenzylthio)-6,7-dihydro-1H-cyclopenta[d]pyrimidin-4(5H)-one]
83	66	–	–	–	CCN(CC)CCN(CC(=O)O)Cc1nnc(Cn2c(SCc3ccc(F)cc3)nc(=O)c3c2CCC3)n1Cc1ccc(-c2ccc(C(F)(F)F)cc2)cc1 [Example 135, 2-((2-(diethylamino)ethyl)((3-((2-(4-fluorobenzylthio)-4-oxo-4,5,6,7-tetrahydro-1H-cyclopenta[d]pyrimidin-1-yl)methyl)-4-((4′-(trifluoromethyl)biphenyl-4-yl)methyl)-4H-1,2,4-triazol-5-yl)methyl)amino)acetic acid]
